Measurements published in patent US20240000811A1, “INOSITOL HEXAKISPHOSPHATE ANALOGUES FOR TREATMENT OF CALCIFICATION ASSOCIATED KIDNEY DISEASES” (INOSITEC AG, priority 2020, published 2024).

Key:
[1] = tested on: C57BL/6 male mice on high phosphate diet; experiment: Mouse model of high phosphate-induced kidney damage; type: in vivo; details: 100 mg/kg s.c. 3 times/week
Experimental: C57BL/6 male mice (12 weeks of age) were placed on either regular diet containing 0.35% inorganic phosphate or high phosphate diet containing 2.0% inorganic phosphate. These mice were subcutaneously injected with either (OEG2)2-IP4 (100 mg/kg) or vehicle (distilled water) three times a week and then sacrificed at 20 weeks of age to harvest their blood and kidneys. Some mice were transferred individually to metabolic cages to collect urine for 3 days before sacrifice. Serum FGF23 levels were measured using intact FGF23 ELISA (Kinos) according to the manufacturers' protocols. Serum and urine levels of phosphate were measured using Fuji Dri-Chem slides and the analyzer (Dri-Chem NX500V, Fuji, Tokyo, Japan). […] Quantitative RT-PCR reactions were performed using 20 ng of cDNA incubated with 410 nM of each primer and 6 μL of SYBR Green PCR Master mix (Toyoba, Osaka, Japan THUNDERBIRD SYBR qPCR Mix QPS-201) in a total volume of 12 μl. […] Relative mRNA levels were calculated by the comparative threshold cycle method using cyclophilin as an internal control. […] The collagen volume fraction (the ratio of the Sirius Red-positive area to the total area) was quantified using an image analysis software (IMAGE PRO 9.32, Medica Cybernetics, Rockville, MD, USA) as previously described (Hirano, Y. Kurosu et al., FEBS Open Bio. 10, 894-903. DOI:10.1002/2211-5463.1284, 2020). […]

[2] = tested on: RPTEC/TERT 1 human proximal tubule cells; experiment: RNA sequencing of RPTEC treated with Ca/P and compound; type: cell-based; details: 50 μM compound
Experimental: RNA sequencing Cells were cultured as described in the imaging assay and treated with a medium control (ProxUp basal medium containing 1/1 mM Ca/P), 5/7 mM Ca/P, 5/7 mM Ca/P in medium containing 50 μM (OEG2)2-IP4 or 50 μM (OEG2)2-IP4 in medium for 24 h. Total RNA was extracted using the RNeasy kit (Quiagen) according to the manufacturer's instructions. Three wells per sample group were prepared and total RNA extracted of those 3 wells pooled. mRNA was purified and RNAseq library was prepared using the TrueSeq RNA kit (Illumina). Sequencing was performed on a Novaseq 6000 (Illumina). Reads were aligned to the human reference genome GRCh38.p10 using the STAR tool (https://github.com/alexdobin/STAR) and transcripts quantified using the Kallisto program (42). Ensembl release 91 was used for the gene model definitions. […] The heatmap was plotted using R software. Overrepresentation analysis was performed on Webgestalt.org (v2019) (43), using differentially expressed genes with p≤0.01, log 2fold change≥0.5. Differential expressed genes were compared to the gene ontology—biological process functional database and as a reference set the human genome—protein coding was used. The weighted set cover of the top 30 enriched categories was plotted. For comparison of expression levels of the selected genes, the fragments per kilobase of exon model per million reads mapped (FPKM) were used. Three independent experiments were performed. RNA sequencing raw data is available on the EMBL Nucleotide Sequence Database (ENA) under the accession number PRJEB38397.

COCCOCCO[C@@H]1C(OP(=O)(O)O)[C@H](OCCOCCOC)[C@@H](OP(=O)(O)O)C(OP(=O)(O)O)[C@H]1OP(=O)(O)O (stereo partly shown) [(OEG2)2-IP4]
collagen volume fraction (fibrosis), Picro-Sirius red staining of the kidneys, vs vehicle [1]: reduced | kidney damage and fibrosis markers (Spp1, IL36a, Ngal, MMP3, Col1a1 mRNA in kidney) vs vehicle control [1]: significantly reduced | Ca/P-induced change in gene expression profile ([2]; 5/7 mM Ca/P, 24 h): prevented | differentially expressed genes, Ca/P+compound vs. compound only ([2]; fold change ≥1.5 and p≤0.05): 77 | differentially expressed genes, Ca/P+compound vs. negative ctrl ([2]; fold change ≥1.5 and p≤0.05): 76 | differentially expressed genes, Ca/P+compound vs. positive ctrl ([2]; fold change ≥1.5 and p≤0.05): 2437 | differentially expressed genes, compound only vs. positive ctrl ([2]; fold change ≥1.5 and p≤0.05): 2935
